Reference: ChEMBL document CHEMBL4184177, “Synthesis and bioevaluation study of novel N-methylpicolinamide and thienopyrimidine derivatives as selectivity c-Met kinase inhibitors” (Bioorg Med Chem, 2018)
Activity calls are given as the source filed them. The calls are words filed in the database; no cut-off is given here.

Columns and labels:
[1] = system: A549; experiment: Cytotoxicity against human A549 cells after 72 hrs by MTT assay; details: A549, 72 h
[2] = system: HepG2; experiment: Potency index, ratio of foretinib IC50 to compound IC50 for human HepG2 cells; format: functional
[3] = system: MCF7; experiment: Potency index, ratio of foretinib IC50 to compound IC50 for human MCF7 cells; format: functional
[4] = molecular target: Hepatocyte growth factor receptor (Homo sapiens, UniProt P08581); experiment: Inhibition of c-Met (unknown origin) using FAM-labeled peptide substrate after 10 mins by mobility shift assay
[5] = molecular target: T1, Receptor-type tyrosine-protein kinase FLT3 (Homo sapiens, UniProt P36888); experiment: Inhibition of FLT3 (unknown origin) using FAM-labeled peptide substrate after 10 mins by mobility shift assay
T1 sequence (P36888 whole entry): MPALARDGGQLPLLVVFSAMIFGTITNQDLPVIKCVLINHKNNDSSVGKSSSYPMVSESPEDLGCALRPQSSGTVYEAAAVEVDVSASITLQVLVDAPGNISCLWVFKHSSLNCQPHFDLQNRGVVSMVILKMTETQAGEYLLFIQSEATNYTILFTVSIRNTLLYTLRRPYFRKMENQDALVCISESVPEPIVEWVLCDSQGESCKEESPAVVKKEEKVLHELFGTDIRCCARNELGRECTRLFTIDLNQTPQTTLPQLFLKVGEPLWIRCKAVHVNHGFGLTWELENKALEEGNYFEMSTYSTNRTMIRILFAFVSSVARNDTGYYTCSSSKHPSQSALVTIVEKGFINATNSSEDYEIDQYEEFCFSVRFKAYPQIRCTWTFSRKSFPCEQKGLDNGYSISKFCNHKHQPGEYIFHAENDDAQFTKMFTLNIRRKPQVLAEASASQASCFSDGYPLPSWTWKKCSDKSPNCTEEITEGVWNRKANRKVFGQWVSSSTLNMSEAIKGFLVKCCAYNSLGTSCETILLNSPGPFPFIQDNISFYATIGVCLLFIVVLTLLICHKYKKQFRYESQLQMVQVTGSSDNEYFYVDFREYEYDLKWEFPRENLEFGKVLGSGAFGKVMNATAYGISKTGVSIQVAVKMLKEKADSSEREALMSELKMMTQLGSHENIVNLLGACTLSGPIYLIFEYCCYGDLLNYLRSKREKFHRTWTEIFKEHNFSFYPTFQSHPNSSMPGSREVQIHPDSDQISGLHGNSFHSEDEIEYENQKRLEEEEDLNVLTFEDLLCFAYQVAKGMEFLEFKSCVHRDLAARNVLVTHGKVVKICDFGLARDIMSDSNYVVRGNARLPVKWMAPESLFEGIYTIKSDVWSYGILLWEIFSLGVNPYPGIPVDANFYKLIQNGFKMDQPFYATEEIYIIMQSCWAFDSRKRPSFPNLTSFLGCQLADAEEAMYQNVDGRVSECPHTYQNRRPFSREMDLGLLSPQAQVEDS

[6] = molecular target: Vascular endothelial growth factor receptor 2 (Homo sapiens, UniProt P35968); experiment: Inhibition of VEGFR2 (unknown origin) using FAM-labeled peptide substrate after 10 mins by mobility shift assay
[7] = molecular target: Mast/stem cell growth factor receptor Kit (Homo sapiens, UniProt P10721); experiment: Inhibition of c-Kit (unknown origin) using FAM-labeled peptide substrate after 10 mins by mobility shift assay
[8] = molecular target: Epidermal growth factor receptor (Homo sapiens, UniProt P00533); experiment: Inhibition of EGFR (unknown origin) using FAM-labeled peptide substrate after 10 mins by mobility shift assay
[9] = system: HepG2; experiment: Induction of morphological changes in human HepG2 cells assessed as cell shrinkage at 0.47 uM by acridine orange dye based inverted microscopy and fluorescence microscopic method; format: functional
[10] = system: HepG2; experiment: Induction of morphological changes in human HepG2 cells assessed as chromatin condensation at 0.47 uM by acridine orange dye based inverted microscopy and fluorescence microscopic method; format: functional, cell-based
[11] = system: HepG2; experiment: Induction of apoptosis in human HepG2 cells by Annexin V-FITC/propidium iodide staining based flow cytometry; format: functional, cell-based
[12] = system: HepG2; experiment: Induction of apoptosis in human HepG2 cells assessed as live cells at 0.23 uM by Annexin V-FITC/propidium iodide staining based flow cytometry (reference value: 96.54%); format: functional
[13] = system: HepG2; experiment: Induction of apoptosis in human HepG2 cells assessed as early apoptotic cells at 0.23 uM by Annexin V-FITC/propidium iodide staining based flow cytometry (reference value: 1.11%); format: functional
[14] = system: HepG2; experiment: Induction of apoptosis in human HepG2 cells assessed as late apoptotic cells at 0.23 uM by Annexin V-FITC/propidium iodide staining based flow cytometry (reference value: 2.07%); format: functional
[15] = system: HepG2; experiment: Induction of apoptosis in human HepG2 cells assessed as necrotic cells at 0.23 uM by Annexin V-FITC/propidium iodide staining based flow cytometry (reference value: 0.28%); format: functional
[16] = system: HepG2; experiment: Induction of apoptosis in human HepG2 cells assessed as live cells at 0.47 uM by Annexin V-FITC/propidium iodide staining based flow cytometry (reference value: 96.54%); format: functional
[17] = system: HepG2; experiment: Induction of apoptosis in human HepG2 cells assessed as early apoptotic cells at 0.47 uM by Annexin V-FITC/propidium iodide staining based flow cytometry (reference value: 1.11%); format: functional
[18] = system: HepG2; experiment: Induction of apoptosis in human HepG2 cells assessed as late apoptotic cells at 0.47 uM by Annexin V-FITC/propidium iodide staining based flow cytometry (reference value: 2.07%); format: functional
[19] = system: HepG2; experiment: Induction of apoptosis in human HepG2 cells assessed as necrotic cells at 0.47 uM by Annexin V-FITC/propidium iodide staining based flow cytometry (reference value: 0.28%); format: functional
[20] = system: HepG2; experiment: Induction of apoptosis in human HepG2 cells assessed as live cells at 0.94 uM by Annexin V-FITC/propidium iodide staining based flow cytometry (reference value: 96.54%); format: functional
[21] = system: HepG2; experiment: Induction of apoptosis in human HepG2 cells assessed as early apoptotic cells at 0.94 uM by Annexin V-FITC/propidium iodide staining based flow cytometry (reference value: 1.11%); format: functional
[22] = system: HepG2; experiment: Induction of apoptosis in human HepG2 cells assessed as late apoptotic cells at 0.94 uM by Annexin V-FITC/propidium iodide staining based flow cytometry (reference value: 2.07%); format: functional
[23] = system: HepG2; experiment: Induction of apoptosis in human HepG2 cells assessed as necrotic cells at 0.94 uM by Annexin V-FITC/propidium iodide staining based flow cytometry (reference value: 0.28%); format: functional
[24] = system: HepG2; experiment: cells; details: Homo sapiens, HepG2, 72 h
Description: Cytotoxicity against human HepG2 cells after 72 hrs by MTT assay

[25] = system: MCF7; experiment: cells; details: Homo sapiens, MCF7, 72 h
Description: Cytotoxicity against human MCF7 cells after 72 hrs by MTT assay

Mast/stem cell growth factor receptor Kit, sequence (P10721 whole entry): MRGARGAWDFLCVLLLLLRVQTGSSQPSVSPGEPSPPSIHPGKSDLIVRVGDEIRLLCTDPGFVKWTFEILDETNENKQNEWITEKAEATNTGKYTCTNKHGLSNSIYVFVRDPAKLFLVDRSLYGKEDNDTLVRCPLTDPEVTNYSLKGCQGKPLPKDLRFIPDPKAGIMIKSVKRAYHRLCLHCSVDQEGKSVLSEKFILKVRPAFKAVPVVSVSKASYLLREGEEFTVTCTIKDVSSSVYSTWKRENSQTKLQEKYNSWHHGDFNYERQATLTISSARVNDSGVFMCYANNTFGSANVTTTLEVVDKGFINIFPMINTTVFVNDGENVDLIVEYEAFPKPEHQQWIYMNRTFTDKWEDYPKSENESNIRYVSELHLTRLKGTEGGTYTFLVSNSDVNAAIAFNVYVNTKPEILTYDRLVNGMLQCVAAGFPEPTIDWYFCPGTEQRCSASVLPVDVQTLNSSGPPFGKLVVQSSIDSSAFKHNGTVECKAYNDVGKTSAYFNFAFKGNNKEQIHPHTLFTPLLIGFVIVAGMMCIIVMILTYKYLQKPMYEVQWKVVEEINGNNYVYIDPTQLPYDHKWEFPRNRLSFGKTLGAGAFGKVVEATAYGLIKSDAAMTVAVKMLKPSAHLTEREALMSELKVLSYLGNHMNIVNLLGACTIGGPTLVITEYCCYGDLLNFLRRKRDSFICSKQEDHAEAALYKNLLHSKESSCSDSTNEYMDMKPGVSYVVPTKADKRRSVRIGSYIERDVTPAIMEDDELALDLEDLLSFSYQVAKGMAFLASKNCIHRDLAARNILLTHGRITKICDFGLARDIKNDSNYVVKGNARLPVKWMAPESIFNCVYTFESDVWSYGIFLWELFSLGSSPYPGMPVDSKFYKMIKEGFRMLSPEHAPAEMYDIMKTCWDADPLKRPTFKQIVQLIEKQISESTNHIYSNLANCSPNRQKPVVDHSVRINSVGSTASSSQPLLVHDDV
Hepatocyte growth factor receptor, sequence (P08581 whole entry): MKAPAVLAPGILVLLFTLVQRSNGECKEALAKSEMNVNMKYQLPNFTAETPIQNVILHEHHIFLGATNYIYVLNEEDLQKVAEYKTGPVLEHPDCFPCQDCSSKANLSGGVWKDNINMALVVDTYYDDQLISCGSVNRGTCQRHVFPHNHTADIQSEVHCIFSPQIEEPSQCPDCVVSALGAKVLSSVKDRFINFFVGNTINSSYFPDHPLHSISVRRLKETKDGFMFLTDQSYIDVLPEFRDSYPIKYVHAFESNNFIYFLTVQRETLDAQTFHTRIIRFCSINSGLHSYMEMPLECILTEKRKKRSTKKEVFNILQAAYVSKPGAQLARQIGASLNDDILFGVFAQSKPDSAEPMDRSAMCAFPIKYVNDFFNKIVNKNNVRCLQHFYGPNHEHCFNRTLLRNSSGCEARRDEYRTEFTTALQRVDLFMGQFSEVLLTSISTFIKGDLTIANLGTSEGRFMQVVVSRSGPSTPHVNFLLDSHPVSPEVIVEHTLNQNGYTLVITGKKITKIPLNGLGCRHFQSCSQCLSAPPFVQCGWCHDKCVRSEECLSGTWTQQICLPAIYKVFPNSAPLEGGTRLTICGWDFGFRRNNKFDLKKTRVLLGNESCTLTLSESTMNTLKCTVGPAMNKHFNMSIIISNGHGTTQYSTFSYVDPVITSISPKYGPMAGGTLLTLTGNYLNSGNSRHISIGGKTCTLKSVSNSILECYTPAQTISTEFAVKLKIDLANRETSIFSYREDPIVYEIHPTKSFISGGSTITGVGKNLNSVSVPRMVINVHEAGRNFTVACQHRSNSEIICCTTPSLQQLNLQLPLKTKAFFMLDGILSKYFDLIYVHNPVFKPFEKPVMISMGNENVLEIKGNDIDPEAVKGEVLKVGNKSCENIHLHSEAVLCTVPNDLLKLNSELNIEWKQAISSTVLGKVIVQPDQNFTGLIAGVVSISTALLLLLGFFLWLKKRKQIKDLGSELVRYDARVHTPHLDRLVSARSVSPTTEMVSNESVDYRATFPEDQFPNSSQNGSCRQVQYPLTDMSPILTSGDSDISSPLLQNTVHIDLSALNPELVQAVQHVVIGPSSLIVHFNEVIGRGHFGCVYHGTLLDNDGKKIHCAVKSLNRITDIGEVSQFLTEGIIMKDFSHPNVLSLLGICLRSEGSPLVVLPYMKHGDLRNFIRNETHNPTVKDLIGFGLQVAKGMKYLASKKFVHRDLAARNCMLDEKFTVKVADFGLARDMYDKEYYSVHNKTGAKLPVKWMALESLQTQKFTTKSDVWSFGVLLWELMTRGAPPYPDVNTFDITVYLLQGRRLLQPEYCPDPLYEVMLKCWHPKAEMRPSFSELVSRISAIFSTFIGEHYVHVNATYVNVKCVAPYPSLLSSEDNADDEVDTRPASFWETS
Epidermal growth factor receptor, sequence (P00533 whole entry): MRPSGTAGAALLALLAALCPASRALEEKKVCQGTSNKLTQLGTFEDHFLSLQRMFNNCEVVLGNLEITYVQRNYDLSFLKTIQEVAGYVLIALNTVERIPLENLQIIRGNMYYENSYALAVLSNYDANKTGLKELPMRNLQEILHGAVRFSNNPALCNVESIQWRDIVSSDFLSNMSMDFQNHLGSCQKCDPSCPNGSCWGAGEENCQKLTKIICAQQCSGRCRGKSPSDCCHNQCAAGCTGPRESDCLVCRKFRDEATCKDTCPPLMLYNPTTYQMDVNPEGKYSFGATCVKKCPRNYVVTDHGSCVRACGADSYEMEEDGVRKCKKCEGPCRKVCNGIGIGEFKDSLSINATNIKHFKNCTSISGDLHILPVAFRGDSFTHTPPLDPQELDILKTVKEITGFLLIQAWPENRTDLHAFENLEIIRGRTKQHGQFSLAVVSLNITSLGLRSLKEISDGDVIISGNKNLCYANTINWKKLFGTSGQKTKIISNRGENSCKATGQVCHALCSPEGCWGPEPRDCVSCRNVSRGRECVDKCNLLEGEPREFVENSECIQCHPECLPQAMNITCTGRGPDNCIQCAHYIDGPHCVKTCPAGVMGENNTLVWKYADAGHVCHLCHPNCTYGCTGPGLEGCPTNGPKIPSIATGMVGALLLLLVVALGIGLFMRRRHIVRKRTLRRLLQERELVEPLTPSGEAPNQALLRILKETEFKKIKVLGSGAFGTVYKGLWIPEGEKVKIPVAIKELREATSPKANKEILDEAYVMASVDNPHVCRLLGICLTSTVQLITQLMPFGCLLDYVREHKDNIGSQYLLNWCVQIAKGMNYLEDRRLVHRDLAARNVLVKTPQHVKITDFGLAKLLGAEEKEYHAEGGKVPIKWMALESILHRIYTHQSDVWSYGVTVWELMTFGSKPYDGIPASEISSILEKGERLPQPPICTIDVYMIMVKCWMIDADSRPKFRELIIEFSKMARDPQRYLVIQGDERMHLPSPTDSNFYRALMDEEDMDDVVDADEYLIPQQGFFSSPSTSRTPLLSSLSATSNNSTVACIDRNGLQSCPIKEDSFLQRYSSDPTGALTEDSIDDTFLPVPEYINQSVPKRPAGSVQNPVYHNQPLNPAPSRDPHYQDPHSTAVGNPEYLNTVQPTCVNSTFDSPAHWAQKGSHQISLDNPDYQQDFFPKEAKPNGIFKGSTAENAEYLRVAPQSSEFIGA
Vascular endothelial growth factor receptor 2, sequence (P35968 whole entry): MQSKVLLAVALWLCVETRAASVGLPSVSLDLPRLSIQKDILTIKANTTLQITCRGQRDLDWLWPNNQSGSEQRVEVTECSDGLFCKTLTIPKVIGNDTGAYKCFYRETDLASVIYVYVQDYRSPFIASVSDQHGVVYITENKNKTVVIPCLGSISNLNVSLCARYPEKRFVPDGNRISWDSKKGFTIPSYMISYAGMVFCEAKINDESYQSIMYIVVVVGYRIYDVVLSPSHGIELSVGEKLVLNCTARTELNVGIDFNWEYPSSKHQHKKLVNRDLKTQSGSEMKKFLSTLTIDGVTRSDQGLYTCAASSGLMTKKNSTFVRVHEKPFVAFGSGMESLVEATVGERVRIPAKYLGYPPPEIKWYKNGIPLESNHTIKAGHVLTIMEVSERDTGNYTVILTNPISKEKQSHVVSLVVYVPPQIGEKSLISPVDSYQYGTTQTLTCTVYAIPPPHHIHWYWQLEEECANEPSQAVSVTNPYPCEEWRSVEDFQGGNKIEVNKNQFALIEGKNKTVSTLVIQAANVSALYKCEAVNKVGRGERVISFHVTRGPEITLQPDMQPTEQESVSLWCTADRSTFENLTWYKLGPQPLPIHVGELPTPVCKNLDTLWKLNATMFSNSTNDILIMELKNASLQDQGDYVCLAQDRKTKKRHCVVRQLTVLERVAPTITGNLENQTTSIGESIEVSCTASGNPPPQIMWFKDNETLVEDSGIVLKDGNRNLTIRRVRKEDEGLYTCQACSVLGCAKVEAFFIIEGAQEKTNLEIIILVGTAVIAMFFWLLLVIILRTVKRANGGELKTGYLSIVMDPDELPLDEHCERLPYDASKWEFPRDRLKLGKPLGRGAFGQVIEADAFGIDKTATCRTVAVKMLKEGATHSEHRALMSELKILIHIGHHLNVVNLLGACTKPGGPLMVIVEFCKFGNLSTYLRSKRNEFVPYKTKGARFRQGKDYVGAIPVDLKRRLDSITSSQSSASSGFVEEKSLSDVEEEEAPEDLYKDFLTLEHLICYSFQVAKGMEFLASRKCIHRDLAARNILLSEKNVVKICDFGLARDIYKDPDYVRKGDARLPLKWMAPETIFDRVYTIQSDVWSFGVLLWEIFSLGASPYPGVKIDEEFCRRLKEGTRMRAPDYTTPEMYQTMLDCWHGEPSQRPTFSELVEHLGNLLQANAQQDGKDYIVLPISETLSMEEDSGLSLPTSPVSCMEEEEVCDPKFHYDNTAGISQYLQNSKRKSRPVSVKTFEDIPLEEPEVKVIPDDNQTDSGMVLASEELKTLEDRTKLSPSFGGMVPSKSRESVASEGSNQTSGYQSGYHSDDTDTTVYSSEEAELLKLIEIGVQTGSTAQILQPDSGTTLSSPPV

For `Cc1cc(=O)n(-c2ccc(F)cc2)nc1C(=O)Nc1ccc(Oc2ncnc3ccsc23)c(F)c1`, the IC50 [1] was 580 nM, the “Ratio IC50” value [2] was 3.73 - 5.39 and the “Ratio IC50” value [3] was 3.73 - 5.39. The IC50 [4] was 19 nM, the IC50 [5] was 950 nM and the IC50 [6] was 450 nM. The IC50 [7] was 3700 nM, the IC50 [8] was 6900 nM and the Activity [9] was “Active”. For the same compound, the Activity [10] was “Active”, the Activity [11] was “Dose-dependent effect” and the Activity [12] was 84.11%. For the same compound, the Activity [13] was 8.08%, the Activity [14] was 6.54% and the Activity [15] was 1.28%. The Activity [16] was 72.36%, the Activity [17] was 16.09% and the Activity [18] was 10.3%. For the same compound, the Activity [19] was 1.25%, the Activity [20] was 62.8% and the Activity [21] was 13.9%. The Activity [22] was 21%, the Activity [23] was 2.31% and the IC50 [24] was 470 nM. It also gave an IC50 [25] of 740 nM.
